Results: US4443436A, “C-20-Modified macrolide derivatives of the macrolide antibiotics tylosin, desmycosin, macrocin, and lactenocin” (Eli Lilly and Company, priority 1982, dated 1984)
≈ marks a conversion by molar mass, not a printed value. Read-outs that look alike come from different tables or passages of the source.

What was measured:
[1] = tested on: Staphylococcus aureus X1.1; experiment: MIC, standard agar-dilution assay, Staphylococcus aureus X1.1; type: cell-based
[2] = tested on: Staphylococcus aureus V41; experiment: MIC, standard agar-dilution assay, Staphylococcus aureus V41; type: cell-based
[3] = tested on: Staphylococcus aureus X400; experiment: MIC, standard agar-dilution assay, Staphylococcus aureus X400; type: cell-based
[4] = tested on: Staphylococcus aureus S13E; experiment: MIC, standard agar-dilution assay, Staphylococcus aureus S13E; type: cell-based
[5] = tested on: Staphylococcus epidermidis EPI1; experiment: MIC, standard agar-dilution assay, Staphylococcus epidermidis EPI1; type: cell-based
[6] = tested on: Staphylococcus epidermidis EPI2; experiment: MIC, standard agar-dilution assay, Staphylococcus epidermidis EPI2; type: cell-based; conditions: Staphylococcus epidermidis EPI2, agar dilution
[7] = tested on: Streptococcus pyogenes C203; experiment: MIC, standard agar-dilution assay, Streptococcus pyogenes C203; type: cell-based
[8] = tested on: Streptococcus pneumoniae Park I; experiment: microbe, parasite or virus in culture; type: cell-based
[9] = tested on: Streptococcus Group D X66; experiment: MIC, standard agar-dilution assay, Streptococcus Group D X66; type: cell-based
[10] = tested on: Streptococcus Group 9960; experiment: MIC, standard agar-dilution assay, Streptococcus Group 9960; type: cell-based; conditions: Streptococcus Group 9960, agar dilution
[11] = tested on: Haemophilus influenzae Holt; experiment: MIC, standard agar-dilution assay, Haemophilus influenzae Holt; type: cell-based
[12] = tested on: Haemophilus influenzae R252; experiment: MIC, standard agar-dilution assay, Haemophilus influenzae R252; type: cell-based
[13] = tested on: Staphylococcus aureus; experiment: MIC, broth-dilution microtiter test, Staphylococcus aureus; type: cell-based
Source text: (§1) The MIC's in Table X were obtained using conventional broth-dilution microtiter tests.

[14] = tested on: Streptococcus bovis 80; experiment: MIC, broth-dilution microtiter test, Streptococcus bovis 80; type: cell-based; conditions: Streptococcus bovis 80, broth-dilution microtiter
Source text: as §1

[15] = tested on: Pasteurella multocida 17E; experiment: MIC, broth-dilution microtiter test, Pasteurella multocida 17E; type: cell-based; conditions: Pasteurella multocida 17E, bovine isolate, broth-dilution microtiter
Source text: as §1

[16] = tested on: Pasteurella multocida 60A; experiment: MIC, broth-dilution microtiter test, Pasteurella multocida 60A; type: cell-based
Source text: as §1

[17] = tested on: Pasteurella hemolytica 22C; experiment: MIC, broth-dilution microtiter test, Pasteurella hemolytica 22C; type: cell-based
Source text: as §1

[18] = tested on: Mycoplasma gallisepticum; experiment: MIC, broth-dilution microtiter test, Mycoplasma gallisepticum; type: cell-based; conditions: Mycoplasma gallisepticum, broth-dilution microtiter
Source text: as §1

[19] = tested on: Mycoplasma synoviae; experiment: MIC, broth-dilution microtiter test, Mycoplasma synoviae; type: cell-based; conditions: Mycoplasma synoviae, broth-dilution microtiter
Source text: as §1

[20] = tested on: Mycoplasma hyorhinis; experiment: MIC, broth-dilution microtiter test, Mycoplasma hyorhinis; type: cell-based
Source text: as §1

[21] = tested on: Mycoplasma hyopneumoniae; experiment: MIC, broth-dilution microtiter test, Mycoplasma hyopneumoniae; type: cell-based
Source text: as §1

[22] = tested on: Streptococcus pyogenes C203; experiment: In vivo protection of mice experimentally infected with S. pyogenes C203; conditions: mice, doses given 1 and 4 hours post-infection; for ED50: Streptococcus pyogenes
Description: The C-20 modified derivatives of this invention have shown in vivo antimicrobial activity against experimentally-induced infections in laboratory animals. When two doses of test compound were administered to mice experimentally infected with S. pyogenes C203, the activity observed was measured as an ED50 value [effective dose in mg/kg to protect 50% of the test animals: see Warren Wick, et al., J. Bacteriol. 81, 233-235 (1961)].

[23] = Staphylococcus aureus X1.1, agar dilution
[24] = Staphylococcus aureus V41, penicillin-resistant strain, agar dilution
[25] = Staphylococcus aureus X400, methicillin-resistant strain, agar dilution
[26] = Staphylococcus aureus S13E, agar dilution
[27] = Staphylococcus epidermidis EPI1, agar dilution
[28] = Streptococcus pyogenes C203, agar dilution
[29] = Streptococcus pneumoniae Park I, agar dilution
[30] = Streptococcus Group D X66, agar dilution
[31] = Haemophilus influenzae Holt, ampicillin-sensitive strain, agar dilution
[32] = Haemophilus influenzae R252, ampicillin-resistant strain, agar dilution
[33] = Pasteurella multocida 60A, avian isolate, broth-dilution microtiter
[34] = Pasteurella hemolytica 22C, broth-dilution microtiter
[35] = Mycoplasma hyorhinis, broth-dilution microtiter
[36] = Mycoplasma hyopneumoniae, broth-dilution microtiter

CCC1OC(=O)CC(O)C(C)C(OC2OC(C)C(O)C(N(C)C)C2O)C(CCOc2ccc(-c3ccccc3)cc2)CC(C)C(=O)C=CC(C)=CC1COC1OC(C)C(O)C(OC)C1OC (stereo not drawn) [Compound 41, 20-DH-20-O-(p-Phenylphenyl)desmycosin]
MIC [1, 23]: 0.5 µg/mL (≈ 0.54 µM)
MIC [2, 24]: 0.25 µg/mL (≈ 0.27 µM)
MIC [3, 25]: 0.5 µg/mL (≈ 0.54 µM)
MIC [4, 26]: 0.25 µg/mL (≈ 0.27 µM)
MIC [5, 27]: 0.5 µg/mL (≈ 0.54 µM)
MIC [6]: 0.25 µg/mL (≈ 0.27 µM)
MIC [7, 28]: 0.25 µg/mL (≈ 0.27 µM)
MIC [8, 29]: 0.25 µg/mL (≈ 0.27 µM)
MIC [9, 30]: 0.5 µg/mL (≈ 0.54 µM)
MIC [10]: 0.5 µg/mL (≈ 0.54 µM)
MIC [11, 31]: 16 µg/mL (≈ 17.3 µM)
MIC [12, 32]: 16 µg/mL (≈ 17.3 µM)
MIC ([13]; broth-dilution microtiter): 0.19 µg/mL (≈ 0.205 µM)
MIC [14]: 0.39 µg/mL (≈ 0.421 µM)
MIC [15]: 12.5 µg/mL (≈ 13.5 µM)
MIC [16, 33]: 12.5 µg/mL (≈ 13.5 µM)
MIC [17, 34]: 25 µg/mL (≈ 27 µM)
MIC [18]: < 0.05 µg/mL
MIC [19]: 0.39 µg/mL (≈ 0.421 µM)
MIC [20, 35]: 3.12 µg/mL (≈ 3.37 µM)
MIC [21, 36]: 3.12 µg/mL (≈ 3.37 µM)
ED50, Oral ([22]; oral): 25 mg/kg × 2
ED50, Subcutaneous ([22]; subcutaneous): > 10 mg/kg × 2

CCC1OC(=O)CC(O)C(C)C(OC2OC(C)C(O)C(N(C)C)C2O)C(CCOc2ccc(C=O)cc2)CC(C)C(=O)C=CC(C)=CC1COC1OC(C)C(O)C(OC)C1OC (stereo not drawn) [Compound 36, 20-DH-20-O-(p-formylphenyl)desmycosin]
MIC ([1]; Staphylococcus aureus, X1.1): 0.25 µg/mL (≈ 0.285 µM)
MIC ([2]; Staphylococcus aureus, V41): 0.25 µg/mL (≈ 0.285 µM)
MIC ([3]; Staphylococcus aureus, X400): 0.25 µg/mL (≈ 0.285 µM)
MIC ([4]; Staphylococcus aureus, S13E): 0.25 µg/mL (≈ 0.285 µM)
MIC ([5]; Staphylococcus epidermidis, EPI1): 0.25 µg/mL (≈ 0.285 µM)
MIC ([6]; read-out: MIC): 0.12 µg/mL (≈ 0.137 µM)
MIC ([7]; Streptococcus pyogenes, C203): 1 µg/mL (≈ 1.14 µM)
MIC ([8]; Streptococcus pneumoniae): 1 µg/mL (≈ 1.14 µM)
MIC [9]: 4 µg/mL (≈ 4.56 µM)
MIC ([10]; GROUP9960, read-out: MIC): 8 µg/mL (≈ 9.11 µM)
MIC ([11]; Haemophilus influenzae): 16 µg/mL (≈ 18.2 µM)
MIC ([12]; Haemophilus influenzae, R252): 16 µg/mL (≈ 18.2 µM)
MIC [13]: 12.5 µg/mL (≈ 14.2 µM)
MIC ([14]; Streptococcus equinus, read-out: MIC): 12.5 µg/mL (≈ 14.2 µM)
MIC ([15]; read-out: MIC): 25 µg/mL (≈ 28.5 µM)
MIC ([16]; Pasteurella multocida, 60A): 12.5 µg/mL (≈ 14.2 µM)
MIC ([17]; Pasteurella, 22C): 50 µg/mL (≈ 56.9 µM)
MIC ([18]; Mycoplasmoides gallisepticum, read-out: MIC): 25 µg/mL (≈ 28.5 µM)
MIC ([19]; Mycoplasmopsis synoviae, read-out: MIC): > 50 µg/mL
MIC ([20]; Mycoplasma): 50 µg/mL (≈ 56.9 µM)
MIC ([21]; Mesomycoplasma hyopneumoniae): 12.5 µg/mL (≈ 14.2 µM)
ED50 ([22]; C203, sc, subcutaneous, read-out: ED50, Subcutaneous): 2.2 mg/kg
ED50 ([22]; C203, oral, read-out: ED50, Oral): 19 mg/kg

CCC1OC(=O)CC(O)C(C)C(OC2OC(C)C(O)C(N(C)C)C2OC(C)=O)C(CCOc2ccccc2)CC(C)C(=O)C=CC(C)=CC1COC1OC(C)C(O)C(OC)C1OC (stereo not drawn) [Compound 67, 20-DH-20-O-Phenyl-2'-O-acetyldesmycosin]
MIC [1, 23]: 0.25 µg/mL (≈ 0.28 µM)
MIC [2, 24]: 0.25 µg/mL (≈ 0.28 µM)
MIC [3, 25]: 0.5 µg/mL (≈ 0.56 µM)
MIC [4, 26]: 0.25 µg/mL (≈ 0.28 µM)
MIC [5, 27]: 0.25 µg/mL (≈ 0.28 µM)
MIC [6]: 0.12 µg/mL (≈ 0.135 µM)
MIC [7, 28]: 1 µg/mL (≈ 1.12 µM)
MIC [8, 29]: 0.25 µg/mL (≈ 0.28 µM)
MIC [9, 30]: 4 µg/mL (≈ 4.48 µM)
MIC [10]: 8 µg/mL (≈ 8.97 µM)
MIC [11, 31]: 32 µg/mL (≈ 35.9 µM)
MIC [12, 32]: 16 µg/mL (≈ 17.9 µM)
MIC ([13]; broth-dilution microtiter): 0.78 µg/mL (≈ 0.874 µM)
MIC [14]: 12.5 µg/mL (≈ 14 µM)
MIC [15]: 25 µg/mL (≈ 28 µM)
MIC [16, 33]: 25 µg/mL (≈ 28 µM)
MIC [17, 34]: 25 µg/mL (≈ 28 µM)
MIC [18]: 0.39 µg/mL (≈ 0.437 µM)
MIC [19]: 3.12 µg/mL (≈ 3.5 µM)
MIC [20, 35]: 50 µg/mL (≈ 56 µM)
MIC [21, 36]: 12.5 µg/mL (≈ 14 µM)
ED50, Oral ([22]; oral): 9 mg/kg × 2
ED50, Subcutaneous ([22]; subcutaneous): 1.0 mg/kg × 2

CCC1OC(=O)CC(O)C(C)C(OC2OC(C)C(OC3CC(C)(O)C(O)C(C)O3)C(N(C)C)C2O)C(CCOc2ccccc2)CC(C)C(=O)C=CC(C)=CC1COC1OC(C)C(O)C(O)C1OC (stereo not drawn) [Compound 53, 20-DH-20-O-Phenylmacrocin]
MIC [1, 23]: 2 µg/mL (≈ 2.04 µM)
MIC [2, 24]: 2 µg/mL (≈ 2.04 µM)
MIC [3, 25]: 4 µg/mL (≈ 4.08 µM)
MIC [4, 26]: 2 µg/mL (≈ 2.04 µM)
MIC [5, 27]: 2 µg/mL (≈ 2.04 µM)
MIC [6]: 2 µg/mL (≈ 2.04 µM)
MIC [7, 28]: 4 µg/mL (≈ 4.08 µM)
MIC [8, 29]: 32 µg/mL (≈ 32.6 µM)
MIC [9, 30]: -- (Not active at 128 mcg/ml, the highest level tested)
MIC [10]: -- (Not active at 128 mcg/ml, the highest level tested)
MIC [11, 31]: -- (Not active at 128 mcg/ml, the highest level tested)
MIC [12, 32]: -- (Not active at 128 mcg/ml, the highest level tested)
MIC ([13]; broth-dilution microtiter): 0.39 µg/mL (≈ 0.398 µM)
MIC [14]: 6.25 µg/mL (≈ 6.38 µM)
MIC [15]: 25 µg/mL (≈ 25.5 µM)
MIC [16, 33]: 12.5 µg/mL (≈ 12.8 µM)
MIC [17, 34]: 25 µg/mL (≈ 25.5 µM)
MIC [18]: < 0.05 µg/mL
MIC [19]: 3.12 µg/mL (≈ 3.18 µM)
MIC [20, 35]: 50 µg/mL (≈ 51 µM)
MIC [21, 36]: 0.78 µg/mL (≈ 0.796 µM)
